Measured values taken from patent US6756367B2, “Benzo-oxadiazoles, -thiadiazoles and -1,4-diazines, pharmaceutical compositions containing them and a process for preparing them” (Novartis AG, priority 1998, dated 2004).
Structures can show the parent of a compound that is named as a salt.

Columns and labels:
mouse = mouse elevated plus-maze (anxiolytic activity); format: in vivo
From the text: For example the anxiolytic activity of the agents of the invention could be confirmed in the mouse elevated plus-maze [see for example Rodgers R. J., Behavioural Pharmacology 8: 477-496 (1997) where the relevance of the elevated plus-maze is discussed on p. 486; for the method, see Rodgers R. J. et al. Ethology and Psychopharmacology (Eds S J Cooper and C A Hendrie), pp 9-44 (1994), J. Wiley, Chichester]. In this test, the agents of the invention show anxiolytic-like effects on administration of 0.1 to 30 mg/kg p.o.

human recombinant CRF1 = target: T1, human recombinant CRF1 (Homo sapiens, UniProt P34998); test: CRF-stimulated cyclic AMP accumulation in CHO cells expressing human recombinant CRF1 (antagonism, KB from curve shift); format: cell-based; conditions: cAMP, shift of CRF curve with antagonist 10 μM
T1 construct: expressed in transfected cells
T1 sequence (P34998 24-415): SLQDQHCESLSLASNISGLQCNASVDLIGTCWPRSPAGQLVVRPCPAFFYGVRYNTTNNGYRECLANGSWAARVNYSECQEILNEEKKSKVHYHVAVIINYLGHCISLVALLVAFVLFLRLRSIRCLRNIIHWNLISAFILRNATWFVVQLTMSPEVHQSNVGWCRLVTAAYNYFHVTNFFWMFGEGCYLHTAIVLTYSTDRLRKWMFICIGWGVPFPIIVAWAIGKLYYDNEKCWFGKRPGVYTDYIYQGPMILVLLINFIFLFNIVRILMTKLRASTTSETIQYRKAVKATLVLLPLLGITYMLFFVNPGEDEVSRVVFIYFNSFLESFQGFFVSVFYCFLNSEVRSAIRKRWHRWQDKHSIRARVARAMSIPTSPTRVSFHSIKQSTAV
Method: In particular the agents of the invention bind to CRF receptors.
Chinese hamster ovary (CHO) cells expressing human recombinant CRF1 (Chen et al., Proc Natl Acad Sci USA 90, 8967-8971, 1993) are propagated in Dulbecco's modified Eagle medium supplemented with 10% foetal calf serum, non-essential aminoacids, 100 U/ml penicillin, 100 mg/l streptomycin and 1 g/l geneticin (G418). For cyclic AMP determinations, cells are grown to confluence in 24-multiwell plates. Stimulation of cyclic AMP accumulation by CRF (human/rat form) is measured in intact cells, using the [^3H]adenine labelling technique, as described previously (Schoeffter et al., Neuropharmacology 36, 429-437, 1997). Concentration-response curves for CRF are constructed in the presence of putative antagonists (10 μM) or vehicle (dimethyl sulfoxide 1% vol). KB values are calculated from the rightward shifts of the control curve, according to the formula: KB=[antagonist, M]/concentration-ratio-1), where the concentration-ratio designates the ratio of CRF EC50 value in the presence/CRF EC50 value in the absence, of antagonist [Furchgott, In: catecholamines (edited by Blaschko H and Muscholl E) pp. 283-335. Springer, Berlin, 1972].

melting point [°C] | SMILES | further results
101 | CCCCN(CC)c1nc(C)nc(Nc2c(Cl)cc(Cl)c3nsnc23)c1C | 
112 to 114 | CCCN(CCC)c1nc(C)nc(Nc2c(Cl)cc(C)c3nsnc23)c1C | 
56 | CCCCN(CCCC)c1nc(C)nc(Nc2c(Cl)cc(Cl)c3nsnc23)c1C | 
105 | CCCCN(C)c1nc(C)nc(Nc2c(Cl)cc(Cl)c3nsnc23)c1C | 
126 to 128 | CCCN(CCC)c1nc(C)nc(Nc2c(Cl)cc(Cl)c3nccnc23)c1C | 
116 | CCN(C)c1nc(C)nc(Nc2c(Cl)cc(Cl)c3nsnc23)c1C | 
117 to 119 | CCCCN(CC)c1nc(C)nc(Nc2c(Cl)cc(Cl)c3nccnc23)c1C | 
94 to 96 | CCCN(CCC)c1nc(C)nc(Nc2c(C)cc(C)c3nccnc23)c1C | 
107 | CCCN(CC)c1nc(C)nc(Nc2c(Cl)cc(Cl)c3nsnc23)c1C | 
112 | C=CCN(CC=C)c1nc(C)nc(Nc2c(Cl)cc(Cl)c3nsnc23)c1C | 
189 to 193 | CCN(CC)c1nc(C)nc(Nc2c(Cl)cc(Cl)c3nsnc23)c1C (as salt: fumarate) | 
88 | CCC(C)Nc1nc(C)nc(Nc2c(C)cc(C)c3nsnc23)c1C (centres unmarked) | 
126 | Cc1nc(NCc2ccccc2)c(C)c(Nc2c(Cl)cc(Cl)c3nsnc23)n1 | 
171 to 173 | CCCN(CCC)c1nc(C)nc(Nc2c(C)cc(C)c3nsnc23)c1C#N | 
101 to 102 | CCCN(CC)c1nc(C)nc(Nc2c(C)cc(C)c3nsnc23)c1C | 
83 to 84 | CCCCN(CC)c1nc(C)nc(Nc2c(C)cc(C)c3nsnc23)c1C | 
109 to 110 | CCCN(CC)c1nc(C)nc(Nc2c(C)cc(C)c3nccnc23)c1C | 
106 to 107 | CCCCN(CC)c1nc(C)nc(Nc2c(C)cc(C)c3nccnc23)c1C | 
106 to 108 | CCCN(CCC)c1nc(C)nc(Nc2c(C)cc(C)c3nsnc23)c1Cl | 
102 to 104 | CCCN(CCC)c1nc(C)nc(Nc2c(C)cc(Cl)c3nsnc23)c1C | 
 | CCCN(CCC)c1nc(C)nc(Nc2c(C)cc(C)c3nsnc23)c1C [Example 1, 5,7-dimethyl-4-[2,5-dimethyl-6-(di-n-propyl)-amino-pyrimidin-4-yl]-amino-2,1,3-benzothiadiazole] | parameters related to motor stimulation in the elevated plus-maze (mouse; 0.1 to 10 mg/kg p.o., in contrast to the standard chlordiazepoxide): not affected; effect on anxiety-related behavioural parameters in the elevated plus-maze (mouse; doses of 0.1 to 10 mg/kg p.o.): significantly affect the anxiety-related behavioural parameters; dose of maximum effect on anxiety-related behavioural parameters (mouse; p.o., elevated plus-maze): 3 mg/kg; Kb (human recombinant CRF1): 36 nM
77 to 80 | CCCN(CCC)c1nc(C)nc(Nc2c(Cl)ccc3nsnc23)c1C | 
113 to 115 | CCC(CC)Nc1nc(C)nc(Nc2c(C)cc(C)c3nsnc23)c1C | 
107 to 109 | CCCN(CCC)c1nc(C)nc(Nc2c(Cl)cc(C)c3nccnc23)c1C | 
177 to 179 | CCCN(CCC)c1cc(Nc2c(C)cc(C)c3nsnc23)nc(C)n1 (as salt: fumarate) | 
95 to 98 | CCCN(CCC)c1nc(C)nc(Nc2c(C)ccc3nsnc23)c1C | 
120 to 123 | CCCN(CC)c1nc(C)nc(Nc2c(Cl)cc(Cl)c3nccnc23)c1C | 
138 | Cc1nc(Nc2c(Cl)cc(Cl)c3nsnc23)c(C)c(N(C)Cc2ccccc2)n1 | 
118 to 121 | CCCN(CCC)c1nc(C)nc(Nc2c(Cl)cc(Cl)c3nsnc23)c1C | 
